Columns and labels:
Assay type in all cases: in vivo
[1] = tested on: lambsquarters (Chenopodium album, CHEAL); test: Pre-emerge test, greenhouse herbicide activity screening; conditions: rated 14 days after application, 0 = no damage, 100 = complete death
How it was run: (§1)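 Sandy loam pots; pre-emerge: sown 1 d pre-spray, surface-watered after, then bottom-watered. Post-emerge: sown 8–21 d before, 2–3 leaf stage, + 0.25% v/v NIS, bottom-watered. Acetone, 187 l/ha track spray, 15–1000 g ai/ha. 0–100 injury score, day 14.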

[2] = tested on: barnyardgrass (Echinochloa crus-galli, ECHCG); test: as above; conditions: rated 14 days after application, 0 = no damage, 100 = complete death
How it was run: as §1

[3] = tested on: green foxtail (Setaria viridis, SETVI); test: as above; conditions: rated 14 days after application, 0 = no damage, 100 = complete death
How it was run: as §1

[4] = tested on: velvetleaf (Abutilon theophrasti, ABUTH); test: as above; conditions: rated 14 days after application, 0 = no damage, 100 = complete death
How it was run: as §1

[5] = tested on: large crabgrass (Digitaria sanguinalis, DIGSA); test: as above; conditions: rated 14 days after application, 0 = no damage, 100 = complete death
How it was run: as §1

[6] = tested on: ivyleaf morningglory (Ipomoea hederacea, IPOHE); test: as above; conditions: rated 14 days after application, 0 = no damage, 100 = complete death
How it was run: as §1

[7] = tested on: sicklepod (Cassia obtusifolia, CASOB); test: as above; conditions: rated 14 days after application, 0 = no damage, 100 = complete death
How it was run: as §1

[8] = tested on: johnsongrass (Sorghum halepense, SORHA); test: as above; conditions: rated 14 days after application, 0 = no damage, 100 = complete death
How it was run: as §1

[9] = tested on: lambsquarters (Chenopodium album, CHEAL); test: Post-emerge test, greenhouse herbicide activity screening; conditions: post-emerge, 14 days after application, rating scale 0-100
How it was run: (§2)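 Plants grown in 10 cm pots of sandy loam mix received acetone-dissolved compounds through a moving flat-fan nozzle. Doses ranged from 15 to 1000 g ai/ha. Pre-emerge pots were seeded one day earlier, post-emerge pots 8–21 days earlier. Fourteen days on, each pot was graded 0–100 for damage.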

[10] = tested on: barnyardgrass (Echinochloa crus-galli, ECHCG); test: as above; conditions: post-emerge, 14 days after application, rating scale 0-100
How it was run: as §2

[11] = tested on: redroot pigweed (Amaranthus retroflexus, AMARE); test: as above; conditions: post-emerge, 14 days after application, rating scale 0-100
How it was run: as §2

[12] = tested on: green foxtail (Setaria viridis, SETVI); test: as above; conditions: post-emerge, 14 days after application, rating scale 0-100
How it was run: as §2

[13] = tested on: velvetleaf (Abutilon theophrasti, ABUTH); test: as above; conditions: post-emerge, 14 days after application, rating scale 0-100
How it was run: as §2

[14] = tested on: large crabgrass (Digitaria sanguinalis, DIGSA); test: as above; conditions: post-emerge, 14 days after application, rating scale 0-100
How it was run: as §2

[15] = tested on: ivyleaf morningglory (Ipomoea hederacea, IPOHE); test: as above; conditions: post-emerge, 14 days after application, rating scale 0-100
How it was run: as §2

[16] = tested on: sicklepod (Cassia obtusifolia, CASOB); test: as above; conditions: post-emerge, 14 days after application, rating scale 0-100
How it was run: as §2

[17] = tested on: johnsongrass (Sorghum halepense, SORHA); test: as above; conditions: post-emerge, 14 days after application, rating scale 0-100
How it was run: as §2

[18] = tested on: redroot pigweed (Amaranthus retroflexus, AMARE); test: Pre-emerge test, greenhouse herbicide activity screening; conditions: rated 14 days after application, 0 = no damage, 100 = complete death
How it was run: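 Compounds in acetone were track-sprayed at 15-1000 g ai/ha (187 l/ha) on sandy loam pots: pre-emerge one day after seeding, post-emerge at 2-3 leaf stage with 0.25% v/v non-ionic surfactant. Phytotoxicity was rated 14 days later on a 0 (no damage) to 100 (complete death) scale.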

[19] = tested on: upland rice (Oryza sp., var. Tebonnet, RICE); test: Post-emerge test, crop safety; conditions: post-emerge, 14 days after application, rating scale 0-100
How it was run: as §1

[20] = tested on: field corn (Zea mays L., var. Dekalb 535, CORN); test: Post-emerge test, crop safety; conditions: post-emerge, 14 days after application, rating scale 0-100
How it was run: as §1

[21] = tested on: upland rice (Oryza sp., var. Tebonnet, RICE); test: Pre-emerge test, crop safety; conditions: rated 14 days after application, 0 = no damage, 100 = complete death
How it was run: (§3)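 Visual ratings on a 0-100 scale (0 no damage, 100 all plants dead) were taken at 14 days after treatment. Rates of 15-1000 g ai/ha in acetone, 187 l/ha, were sprayed onto soil one day after planting (pre-emerge) or onto 2-3 leaf plants with 0.25% v/v surfactant (post-emerge).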

[22] = tested on: field corn (Zea mays L., var. Dekalb 535, CORN); test: Pre-emerge test, crop safety; conditions: rated 14 days after application, 0 = no damage, 100 = complete death
How it was run: as §3

Q: What does the source list for `Cn1c(C(F)(F)F)cc(=O)n(-c2c(F)cc(Cl)c(OCC#N)c2N(C(=O)c2ccc(F)cc2F)C(=O)c2ccc(F)cc2F)c1=O` [2-45]?
A: Pre-emerge Herbicidal Activity, phytotoxicity rating (0-100), CHEAL ([1]; 63 g ai/ha): 60; Pre-emerge Herbicidal Activity, phytotoxicity rating (0-100), CHEAL ([1]; 250 g ai/ha): 90; Pre-emerge Herbicidal Activity, phytotoxicity rating (0-100), ECHCG ([2]; 63 g ai/ha): 00; Pre-emerge Herbicidal Activity, phytotoxicity rating (0-100), ECHCG ([2]; 250 g ai/ha): 0; Pre-emerge Herbicidal Activity, phytotoxicity rating (0-100), SETVI ([3]; 63 g ai/ha): 0; Pre-emerge Herbicidal Activity, phytotoxicity rating (0-100), SETVI ([3]; 250 g ai/ha): 30; Pre-emerge Herbicidal Activity, phytotoxicity rating (0-100), ABUTH ([4]; 63 g ai/ha): 0; Pre-emerge Herbicidal Activity, phytotoxicity rating (0-100), ABUTH ([4]; 250 g ai/ha): 70; Pre-emerge Herbicidal Activity, phytotoxicity rating (0-100), DIGSA ([5]; 63 g ai/ha): 0; Pre-emerge Herbicidal Activity, phytotoxicity rating (0-100), DIGSA ([5]; 250 g ai/ha): 0; Pre-emerge Herbicidal Activity, phytotoxicity rating (0-100), IPOHE ([6]; 63 g ai/ha): 0; Pre-emerge Herbicidal Activity, phytotoxicity rating (0-100), IPOHE ([6]; 250 g ai/ha): 0; Pre-emerge Herbicidal Activity, phytotoxicity rating (0-100), CASOB ([7]; 63 g ai/ha): 0; Pre-emerge Herbicidal Activity, phytotoxicity rating (0-100), CASOB ([7]; 250 g ai/ha): 0; Pre-emerge Herbicidal Activity, phytotoxicity rating (0-100), SORHA ([8]; 63 g ai/ha): 0; Pre-emerge Herbicidal Activity, phytotoxicity rating (0-100), SORHA ([8]; 250 g ai/ha): 0; phytotoxicity rating CHEAL ([9]; 63 g ai/ha): 30; phytotoxicity rating CHEAL ([9]; 250 g ai/ha): 30; phytotoxicity rating ECHCG ([10]; 63 g ai/ha): 0; phytotoxicity rating ECHCG ([10]; 250 g ai/ha): 0; phytotoxicity rating AMARE ([11]; 63 g ai/ha): 10; phytotoxicity rating AMARE ([11]; 250 g ai/ha): 20; phytotoxicity rating SETVI ([12]; 63 g ai/ha): 0; phytotoxicity rating SETVI ([12]; 250 g ai/ha): 40; phytotoxicity rating ABUTH ([13]; 63 g ai/ha): 30; phytotoxicity rating ABUTH ([13]; 250 g ai/ha): 40; phytotoxicity rating DIGSA ([14]; 63 g ai/ha): 0; phytotoxicity rating DIGSA ([14]; 250 g ai/ha): 0; phytotoxicity rating IPOHE ([15]; 63 g ai/ha): 20; phytotoxicity rating IPOHE ([15]; 250 g ai/ha): 30; phytotoxicity rating CASOB ([16]; 63 g ai/ha): 0; phytotoxicity rating CASOB ([16]; 250 g ai/ha): 20; phytotoxicity rating SORHA ([17]; 63 g ai/ha): 0; phytotoxicity rating SORHA ([17]; 250 g ai/ha): 0; Pre-emerge Herbicidal Activity, phytotoxicity rating (0-100), AMARE ([18]; 63 g ai/ha): 70; Pre-emerge Herbicidal Activity, phytotoxicity rating (0-100), AMARE ([18]; 250 g ai/ha): 100; phytotoxicity rating RICE ([19]; 63 g ai/ha): 0; phytotoxicity rating RICE ([19]; 250 g ai/ha): 10; phytotoxicity rating CORN ([20]; 63 g ai/ha): 0; phytotoxicity rating CORN ([20]; 250 g ai/ha): 5; Pre-emerge phytotoxicity rating (0-100), crop damage, RICE ([21]; 63 g ai/ha): 0; Pre-emerge phytotoxicity rating (0-100), crop damage, RICE ([21]; 250 g ai/ha): 0; Pre-emerge phytotoxicity rating (0-100), crop damage, CORN ([22]; 63 g ai/ha): 0; Pre-emerge phytotoxicity rating (0-100), crop damage, CORN ([22]; 250 g ai/ha): 0

From patent publication US6355799B1, “Substituted benzene compounds, process for their preparation, and herbicidal and defoliant compositions containing them” (ISK Americas Incorporated, priority 1997, dated 2002)
